The test system of assay [1] is JAK1/TYK2 pSTAT5 (Tyr694/699) in THP-1 cell line. Description: IFNa-stimulated JAK1/TYK2 pSTAT5 (Tyr694/699) inhibition cellular assay, AlphaLISA. It is filed as cell-based. The following applies: THP-1 cells, AlphaLISA (Assay B). The procedure, abridged:
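THP-1, 2e4 cells/well, HBSS; cpd 1 h 37 °C (10000–0.04 nM final, 6-fold, 8 pt); IFNa 100 ng/mL added, 30 min; lyse, freeze −80 °C; pSTAT5 AlphaLISA, 615 nm; 4PL IC50, bottom fixed 0, slope −1.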

Assay [2] concerns the target T1, TYK2 JH2 (Homo sapiens, UniProt P29597).
T1 construct: purchased DiscoverX (KINOMEscan KdELECT service); host or cells: E. coli BL21-derived (T7 phage display) or HEK-293
The assay is described as follows: TYK2 JH2 binding assay (KINOMEscan KdELECT competitive binding). The note with it: TYK2 JH2 domain, KINOMEscan KdELECT (Assay A). In short, it runs like this:
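Beads carrying a biotinylated ligand were mixed with tagged JH2 kinase and compound (11 points, 3-fold steps, 0.9% DMSO) and shaken 1 h at room temperature. After washing, kinase was released with 0.5 μM untagged ligand over 30 min and measured by qPCR to derive Kd.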

Where [3] appears, read: Homo sapiens, IFNa-stimulated pSTAT5 (Tyr694/699), read-out: Cellular_THP1_IFNa-pSTATS_TYK2.
The mark [4] stands for this setting: read-out: Biochemical TYK2_DiscoverX_JH2_BND_Kd.
Setting [5] is: IFNa-stimulated pSTAT5 (Tyr694/699), read-out: Cellular_THP1_IFNa-pSTATS_TYK2.
The mark [6] stands for this setting: Homo sapiens, IFNa-stimulated, read-out: Cellular THP1_IFNa-pSTATS_IC50.
The mark [7] stands for this setting: read-out: Biochemical TYK2_JH2_Kd.

Structures can show the parent of a compound that is named as a salt. Where two headings read alike, the source gives them in different places.

T1 sequence (P29597 589-875 limits assumed): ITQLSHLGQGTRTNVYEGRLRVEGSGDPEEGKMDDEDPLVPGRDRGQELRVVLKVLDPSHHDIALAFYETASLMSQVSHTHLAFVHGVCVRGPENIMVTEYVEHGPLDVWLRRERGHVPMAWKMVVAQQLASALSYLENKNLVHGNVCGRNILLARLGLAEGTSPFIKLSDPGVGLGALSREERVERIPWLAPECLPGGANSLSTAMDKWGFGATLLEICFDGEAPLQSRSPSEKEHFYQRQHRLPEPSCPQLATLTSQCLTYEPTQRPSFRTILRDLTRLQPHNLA

In the case of `CNc1ncc(-c2nc3ccc(N4CCO[C@@H]([C@H](C)O)C4)cn3n2)c2cc(NC(=O)C3CC3)ncc12` (single isomer, unassigned) [Example 1044], the IC50 in assay [1] (setting [3]) was no more than 500 nM. Also, the Kd in assay [2] (setting [4]) is no more than 100 nM.
On the same counts, the results for `CNc1ncc(-c2nc3ccc(N4CCO[C@H]([C@@H](C)O)C4)cn3n2)c2cc(NC(=O)C3CC3)ncc12` (single isomer, unassigned) [Example 1045] are no more than 500 nM and no more than 100 nM.
As to `CNc1ncc(-c2nc3ccc(N4CCO[C@@H]([C@@H](C)O)C4)cn3n2)c2cc(NC(=O)C3CC3)ncc12` (single isomer, unassigned) [Example 1046], in assay [1] (setting [3]), the IC50 is no more than 500 nM. Besides, the Kd in assay [2] (setting [4]) is no more than 100 nM.
Turning to `CNc1ncc(-c2nc3ccc(N4CCO[C@H]([C@H](C)O)C4)cn3n2)c2cc(NC(=O)C3CC3)ncc12` (single isomer, unassigned) [Example 1047], the IC50 in assay [1] (setting [3]) is no more than 500 nM. The Kd in assay [2] (setting [4]) was no more than 100 nM.
As to `CNc1ncc(-c2nc3ccc(N4CCOC(C(C)(C)F)C4)cn3n2)c2cc(NC(=O)C3CC3)ncc12` (single isomer, unassigned) [Example 1049], in assay [1] (setting [3]), the IC50 was no more than 500 nM. For the same molecule, the Kd in assay [2] (setting [4]) is no more than 100 nM.
Regarding `CNc1ncc(-c2nc3ccc(N4CCOC(C(C)(C)F)C4)cn3n2)c2cc(NC(=O)C3CC3)ncc12` (single isomer, unassigned) [Example 1050], in assay [1] (setting [5]), the IC50 is no more than 500 nM. In assay [2] (setting [4]), the Kd is no more than 100 nM.
For the molecule `CNc1ncc(-c2nc3cc(N4CCOCC4)ccc3o2)c2cc(NC(=O)[C@H]3C[C@H]3C(F)F)ncc12` (single isomer, unassigned) [Example 1064], the IC50 in assay [1] (setting [3]) was no more than 500 nM. In addition, in assay [2] (setting [4]), the Kd was no more than 100 nM.
For `CNc1ncc(-c2nc3cc(N4CCOCC4)ccc3o2)c2cc(NC(=O)[C@@H]3C[C@@H]3C(F)(F)F)ncc12` (single isomer, unassigned) [Example 1066], the IC50 in assay [1] (setting [3]) was no more than 500 nM. Also, in assay [2] (setting [4]), the Kd was no more than 100 nM.
Turning to `CNc1ncc(-c2nc3cc(N4CCOCC4)ccc3o2)c2cc(NC(=O)[C@@H]3C[C@@H]3C(F)(F)F)ncc12` (single isomer, unassigned) [Example 1067], the IC50 in assay [1] (setting [5]) was no more than 500 nM. The Kd in assay [2] (setting [4]) is no more than 100 nM.
Consider `CNc1ncc(-c2nc3cc(N4CCOCC4)ccc3o2)c2cc(NC(=O)[C@@H]3C[C@@H]3C(F)F)ncc12` (single isomer, unassigned) [Example 1069], for which the IC50 in assay [1] (setting [3]) was no more than 500 nM. Moreover, the Kd in assay [2] (setting [4]) was no more than 100 nM.
Consider `CNc1ncc(C#Cc2ccc(N3CCOCC3)cc2)c2cc(NC(=O)[C@@H]3C[C@@H]3C(F)F)ncc12` (single isomer, unassigned) [Example 1074], for which the IC50 in assay [1] (setting [3]) is no more than 500 nM. The Kd in assay [2] (setting [4]) was no more than 100 nM.
`CNc1ncc(C#Cc2ccc(N3CCOCC3)cc2)c2cc(NC(=O)[C@H]3C[C@H]3C(F)F)ncc12` (single isomer, unassigned) [Example 1075]: the IC50 in assay [1] (setting [3]) was no more than 500 nM. For the same molecule, in assay [2] (setting [4]), the Kd is no more than 100 nM.
Regarding `CC[C@@H]1CN(c2ccc3nc(-c4cnc(NC)c5cnc(NC(=O)[C@H]6C[C@H]6C)cc45)nn3c2)CCO1` (single isomer, unassigned) [Example 1078], the IC50 in assay [1] (setting [3]) was no more than 500 nM. Also, in assay [2] (setting [4]), the Kd is no more than 100 nM.
For `CC[C@H]1CN(c2ccc3nc(-c4cnc(NC)c5cnc(NC(=O)[C@H]6C[C@H]6C)cc45)nn3c2)CCO1` (single isomer, unassigned) [Example 1079], the IC50 in assay [1] (setting [3]) is no more than 500 nM. The Kd in assay [2] (setting [4]) was no more than 100 nM.
In the case of `CNc1ncc(-c2nc3ccc(N4CCOCC4)cn3n2)c2cc(NC(=O)[C@H]3CC3(F)F)ncc12` (single isomer, unassigned) [Example 1141], the IC50 in assay [1] (setting [3]) is no more than 500 nM. For the same molecule, in assay [2] (setting [4]), the Kd is no more than 100 nM.
Take `CNc1ncc(-c2ccccc2)c2cc(NC(=O)C3CC3)ncc12` [Example 1, N-(8-(methylamino)-5-phenyl-2,7-naphthyridin-3-yl)cyclopropanecarboxamide]: the IC50 in assay [1] (setting [6]) was greater than 500 nM. Besides, the Kd in assay [2] (setting [7]) is no more than 100 nM.
On to `CNc1nccc2cc(NC(=O)C3CC3)ncc12` [Example 2, N-(8-(methylamino)-2,7-naphthyridin-3-yl)cyclopropanecarboxamide], for which the IC50 in assay [1] (setting [6]) was greater than 500 nM. Besides, in assay [2] (setting [7]), the Kd is 100 to 1000 nM.
Consider `CNc1ncc(Br)c2cc(NC(=O)C3CC3)ncc12` [Example 3, N-(5-bromo-8-(methylamino)-2,7-naphthyridin-3-yl)cyclopropanecarboxamide], for which the IC50 in assay [1] (setting [6]) is greater than 500 nM. Besides, in assay [2] (setting [7]), the Kd is no more than 100 nM.
The like results for `CNc1ncc(-c2ccccn2)c2cc(NC(=O)C3CC3)ncc12` [Example 4, N-(8-(methylamino)-5-(pyridin-2-yl)-2,7-naphthyridin-3-yl)cyclopropanecarboxamide] were, in that order, greater than 500 nM and no more than 100 nM.
As to `CNc1ncc(-c2ncccc2OC)c2cc(NC(=O)C3CC3)ncc12` [Example 5, N-(5-(3-methoxypyridin-2-yl)-8-(methylamino)-2,7-naphthyridin-3-yl)cyclopropanecarboxamide], in assay [1] (setting [6]), the IC50 was greater than 500 nM. In addition, the Kd in assay [2] (setting [7]) was in the range of 100 to 1000 nM.
Regarding `CNc1ncc(-c2ccnn2C)c2cc(NC(=O)C3CC3)ncc12` [Example 6, N-(5-(1-methyl-1H-pyrazol-5-yl)-8-(methylamino)-2,7-naphthyridin-3-yl)cyclopropanecarboxamide], the IC50 in assay [1] (setting [6]) is greater than 500 nM. In addition, in assay [2] (setting [7]), the Kd is no more than 100 nM.
On to `CNc1ncc(-c2ccccc2OC)c2cc(NC(=O)C3CC3)ncc12` [Example 7, N-(5-(2-methoxyphenyl)-8-(methylamino)-2,7-naphthyridin-3-yl)cyclopropanecarboxamide], for which the IC50 in assay [1] (setting [6]) is greater than 500 nM. In addition, the Kd in assay [2] (setting [7]) was in the range of 100 to 1000 nM.
As for `CNc1ncc(-c2ccncc2OC)c2cc(NC(=O)C3CC3)ncc12` [Example 8, N-(5-(3-methoxypyridin-4-yl)-8-(methylamino)-2,7-naphthyridin-3-yl)cyclopropanecarboxamide], the IC50 in assay [1] (setting [6]) is greater than 500 nM. The Kd in assay [2] (setting [7]) was no more than 100 nM.
On the same counts, the results for `CNc1ncc(-c2ccncc2)c2cc(NC(=O)C3CC3)ncc12` [Example 9] are greater than 500 nM and no more than 100 nM.
`CNc1ncc(-c2cc(C)no2)c2cc(NC(=O)C3CC3)ncc12` [Example 10, N-(8-(methylamino)-5-(3-methylisoxazol-5-yl)-2,7-naphthyridin-3-yl)cyclopropanecarboxamide]: the IC50 in assay [1] (setting [6]) was greater than 500 nM. Moreover, the Kd in assay [2] (setting [7]) was no more than 100 nM.
On to `CCc1ccccc1-c1cnc(NC)c2cnc(NC(=O)C3CC3)cc12` [Example 11, N-(5-(2-ethylphenyl)-8-(methylamino)-2,7-naphthyridin-3-yl)cyclopropanecarboxamide], for which the IC50 in assay [1] (setting [6]) was greater than 500 nM. Further, the Kd in assay [2] (setting [7]) was 100 to 1000 nM.
On the same counts, the results for `CNc1ncc(-c2cccc(OC)c2)c2cc(NC(=O)C3CC3)ncc12` [Example 12, N-(5-(3-methoxyphenyl)-8-(methylamino)-2,7-naphthyridin-3-yl)cyclopropanecarboxamide] are greater than 500 nM and no more than 100 nM.
For `CNc1ncc(-c2ccc(OC)cc2)c2cc(NC(=O)C3CC3)ncc12` [Example 13, N-(5-(4-methoxyphenyl)-8-(methylamino)-2,7-naphthyridin-3-yl)cyclopropanecarboxamide formate], in assay [1] (setting [6]), the IC50 was greater than 500 nM. In assay [2] (setting [7]), the Kd is no more than 100 nM.
Turning to `CNc1ncc(-c2cccnc2)c2cc(NC(=O)C3CC3)ncc12` [Example 14, N-(8-(methylamino)-5-(pyridin-3-yl)-2,7-naphthyridin-3-yl)cyclopropanecarboxamide], the IC50 in assay [1] (setting [6]) was greater than 500 nM. Further, in assay [2] (setting [7]), the Kd was no more than 100 nM.
The like results for `CNc1ncc(-c2ccccc2Cl)c2cc(NC(=O)C3CC3)ncc12` [Example 15, N-(5-(2-chlorophenyl)-8-(methylamino)-2,7-naphthyridin-3-yl)cyclopropanecarboxamide] were, in that order, greater than 500 nM and no more than 100 nM.
On to `CNc1ncc(-c2ccc(Cl)cc2)c2cc(NC(=O)C3CC3)ncc12` [Example 16, N-(5-(4-chlorophenyl)-8-(methylamino)-2,7-naphthyridin-3-yl)cyclopropanecarboxamide], for which the IC50 in assay [1] (setting [6]) is greater than 500 nM. Further, in assay [2] (setting [7]), the Kd was no more than 100 nM.
Turning to `CNc1ncc(-c2ccccc2F)c2cc(NC(=O)C3CC3)ncc12` [Example 17, N-(5-(2-fluorophenyl)-8-(methylamino)-2,7-naphthyridin-3-yl)cyclopropanecarboxamide], the IC50 in assay [1] (setting [6]) is greater than 500 nM. The Kd in assay [2] (setting [7]) is no more than 100 nM.
Consider `CNc1ncc(-c2ccc(F)cc2)c2cc(NC(=O)C3CC3)ncc12` [Example 18, N-(5-(4-fluorophenyl)-8-(methylamino)-2,7-naphthyridin-3-yl)cyclopropanecarboxamide], for which the IC50 in assay [1] (setting [6]) is greater than 500 nM. For the same molecule, the Kd in assay [2] (setting [7]) is no more than 100 nM.
With `CCn1nccc1-c1cnc(NC)c2cnc(NC(=O)C3CC3)cc12` [Example 19, N-(5-(1-ethyl-1H-pyrazol-5-yl)-8-(methylamino)-2,7-naphthyridin-3-yl)cyclopropanecarboxamide], in assay [1] (setting [6]), the IC50 is greater than 500 nM. Also, the Kd in assay [2] (setting [7]) is no more than 100 nM.

The values above are taken from patent US20240025906A1 (NEURON23, INC., priority 2022, published 2024).
